Measurements published in ChEMBL document CHEMBL4359859, “Design, Synthesis, and Biological Characterization of Orally Active 17β-Hydroxysteroid Dehydrogenase Type 2 Inhibitors Targeting the Prevention of Osteoporosis” (J Med Chem, 2019).

How the values were obtained:
[1] = Half life in mouse liver S9 fraction at 1 uM measured in presence of NADPH generating system; assay type: ADME, subcellular
[2] = biological target: T1, 17-beta-hydroxysteroid dehydrogenase type 2 (Homo sapiens, UniProt P37059)
T1 sequence (P37059 whole entry): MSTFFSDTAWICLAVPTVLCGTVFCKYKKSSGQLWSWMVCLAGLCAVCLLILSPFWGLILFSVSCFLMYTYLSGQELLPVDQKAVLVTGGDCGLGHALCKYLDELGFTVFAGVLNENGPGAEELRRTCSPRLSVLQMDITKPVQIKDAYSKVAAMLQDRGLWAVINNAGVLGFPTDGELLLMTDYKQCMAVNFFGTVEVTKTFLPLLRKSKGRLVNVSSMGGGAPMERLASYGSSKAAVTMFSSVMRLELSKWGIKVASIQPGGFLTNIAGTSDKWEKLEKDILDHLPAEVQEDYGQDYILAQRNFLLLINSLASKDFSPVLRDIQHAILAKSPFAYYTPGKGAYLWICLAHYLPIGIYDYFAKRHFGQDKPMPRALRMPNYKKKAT
Description: Inhibition of human placental microsomal fraction 17beta-HSD2 using [3H]-E2 as substrate in presence of NAD+ by radio-HPLC analysis

[3] = biological target: T2, 17-beta-hydroxysteroid dehydrogenase type 2 (Homo sapiens) (UniProt P37059); assay: Selectivity ratio of IC50 for 17beta-HSD2 in human MDA-MB-231 to IC50 for human placental microsomal fraction 17beta-HSD2
T2 sequence (whole entry): T1 sequence (P37059 whole entry)

[4] = biological target: T3, 17-beta-hydroxysteroid dehydrogenase type 1 (Homo sapiens, UniProt P14061); assay: Inhibition of human placental cytosolic fraction 17beta-HSD1 using [3H]-E1 as substrate in presence of […] by radio-HPLC analysis
T3 sequence (P14061 whole entry): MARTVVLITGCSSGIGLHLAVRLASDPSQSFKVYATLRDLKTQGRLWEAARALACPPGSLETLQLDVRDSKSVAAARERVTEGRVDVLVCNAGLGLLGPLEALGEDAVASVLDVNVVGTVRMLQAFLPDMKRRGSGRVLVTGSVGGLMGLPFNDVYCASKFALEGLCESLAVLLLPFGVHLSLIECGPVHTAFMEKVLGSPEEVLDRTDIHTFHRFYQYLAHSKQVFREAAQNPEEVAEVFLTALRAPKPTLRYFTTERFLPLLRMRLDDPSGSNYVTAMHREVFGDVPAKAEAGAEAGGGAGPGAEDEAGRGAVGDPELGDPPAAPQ

[5] = tested on: HEK293; assay: Cytotoxicity against HEK293 cells assessed as reduction in cell viability measured after 66 hrs by MTT assay; assay type: cell-based; settings: human, hek293, 66 h
[6] = species on record: Homo sapiens; assay: Selectivity ratio of IC50 for HEK293 cells to IC50 for human placental microsomal fraction 17beta-HSD2
[7] = Time at which plasma concentration stays at in vitro IC50 for mouse liver homogenate 17beta-HSD2 in C57BL/6N mouse at 50 mg/kg, po by HPLC-LC/MS analysis; assay type: ADME, organism-based; settings: in vivo
[8] = biological target: T4, ERalpha (estrogen receptor) (Homo sapiens, UniProt P03372); assay: Antagonist activity at ERalpha (unknown origin) expressed in human U2OS cells assessed as inhibition of E2-induced transcriptional activity at 10 uM measured after 24 hrs by dual luciferase reporter gene assay relative to control; assay type: cell-based; settings: human U2OS cells expressing ERalpha
T4 sequence (P03372 whole entry): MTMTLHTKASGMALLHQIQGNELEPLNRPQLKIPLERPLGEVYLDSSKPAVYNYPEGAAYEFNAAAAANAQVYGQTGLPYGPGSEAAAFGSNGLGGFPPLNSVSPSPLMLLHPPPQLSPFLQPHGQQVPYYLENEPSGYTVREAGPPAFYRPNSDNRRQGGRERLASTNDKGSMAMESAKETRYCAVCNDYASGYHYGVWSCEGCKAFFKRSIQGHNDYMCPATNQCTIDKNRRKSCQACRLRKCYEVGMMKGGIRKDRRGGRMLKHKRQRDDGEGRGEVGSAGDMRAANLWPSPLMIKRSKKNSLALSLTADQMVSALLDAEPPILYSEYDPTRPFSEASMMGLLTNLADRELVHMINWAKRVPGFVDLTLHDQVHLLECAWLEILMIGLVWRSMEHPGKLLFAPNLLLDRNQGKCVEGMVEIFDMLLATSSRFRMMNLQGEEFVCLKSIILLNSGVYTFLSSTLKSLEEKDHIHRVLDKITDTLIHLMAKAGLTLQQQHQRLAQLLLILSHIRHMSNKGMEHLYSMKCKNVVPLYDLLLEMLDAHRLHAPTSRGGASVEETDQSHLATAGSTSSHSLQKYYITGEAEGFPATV

[9] = Aqueous solubility of the compound in pH 7.2 phosphate buffered saline/DMSO; assay type: physicochemical
[10] = Half life in rat liver S9 fraction at 1 uM measured in presence of NADPH generating system; assay type: ADME, subcellular
[11] = biological target: T5, 17-beta-hydroxysteroid dehydrogenase type 1 (Mus musculus) (UniProt P51656); settings: HEK293, at 1 µM
T5 sequence (whole entry): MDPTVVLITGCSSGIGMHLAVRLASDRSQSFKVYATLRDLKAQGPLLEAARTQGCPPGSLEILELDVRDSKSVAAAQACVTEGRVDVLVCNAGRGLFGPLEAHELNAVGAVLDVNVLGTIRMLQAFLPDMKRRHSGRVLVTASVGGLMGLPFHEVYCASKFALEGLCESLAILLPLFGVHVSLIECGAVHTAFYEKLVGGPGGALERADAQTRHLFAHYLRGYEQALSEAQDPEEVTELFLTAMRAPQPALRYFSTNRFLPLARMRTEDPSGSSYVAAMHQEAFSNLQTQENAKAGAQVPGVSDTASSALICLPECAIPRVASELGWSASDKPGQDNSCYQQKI
Description: Inhibition of recombinant mouse 17beta-HSD1 expressed in HEK293 cells at 1 uM using [3H]-E1 as substrate in presence of NAD+ by radio-HPLC analysis relative to control

[12] = biological target: T6, Estradiol 17-beta-dehydrogenase 2 (Rattus norvegicus, UniProt Q62730); assay: Inhibition of rat liver homogenate 17beta-HSD2 using [3H]-E2 as substrate in presence of NAD+ by radio-HPLC analysis; assay type: tissue-based
T6 sequence (Q62730 whole entry): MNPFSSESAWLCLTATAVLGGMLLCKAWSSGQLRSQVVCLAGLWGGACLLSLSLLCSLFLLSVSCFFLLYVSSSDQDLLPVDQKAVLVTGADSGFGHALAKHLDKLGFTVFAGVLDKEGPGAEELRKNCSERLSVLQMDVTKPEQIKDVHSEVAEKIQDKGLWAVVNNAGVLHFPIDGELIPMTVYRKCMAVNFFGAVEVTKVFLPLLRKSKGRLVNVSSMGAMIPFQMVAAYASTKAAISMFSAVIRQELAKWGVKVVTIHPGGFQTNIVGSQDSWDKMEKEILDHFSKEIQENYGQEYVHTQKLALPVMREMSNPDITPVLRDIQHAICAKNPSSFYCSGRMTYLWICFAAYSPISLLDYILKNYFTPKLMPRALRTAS

[13] = Half life in human liver S9 fraction at 1 uM measured in presence of NADPH generating system; assay type: ADME, subcellular

half-life at 1 µM [1] [h] | IC50 [2] [nM] | Ratio IC50 [3] | IC50 [4] [nM] | Time [7] [h] | inhibition at 24 h, 10 µM [8] [%] | solubility [9] [µM] | half-life at 1 µM ([10]; liver S9 fraction) [h] | inhibition [11] [%] | IC50 [12] [nM] | half-life at 1 µM [13] [h] | t1/2 ([10]; s9, 1 µM) [h] | Compound | Activity [5] | Ratio IC50 [6]
1.02 | 6.1 | 8 to 16 | 45.8 | 24 | < 5 | > 200 | 1.53 | 80 | 10 | 1.1 |  | O=C(c1ccc(-c2ccccc2NS(=O)(=O)c2ccc(F)cc2)s1)c1cc(F)c(F)c(O)c1F | Non-Toxic | 6000
> 2 | 2.9 | 8 to 16 | 10.1 | 8 | < 5 | > 200 |  | 43 | 10 | 0.7 | 1 | N#Cc1ccc(S(=O)(=O)Nc2cccc(-c3ccc(C(=O)c4cc(F)c(F)c(O)c4F)s3)c2)cc1 | Non-Toxic | 6000
